Results taken from ChEMBL document CHEMBL1821577, “Discovery of GSK1997132B a novel centrally penetrant benzimidazole PPARγ partial agonist” (Bioorg Med Chem Lett, 2011).

Columns and labels:
[1] = target: T1, Peroxisome proliferator-activated receptor gamma (Homo sapiens, UniProt P37231); assay: Partial agonist activity at human PPARgamma by luciferase reporter gene assay; assay type: functional
T1 sequence (P37231 whole entry): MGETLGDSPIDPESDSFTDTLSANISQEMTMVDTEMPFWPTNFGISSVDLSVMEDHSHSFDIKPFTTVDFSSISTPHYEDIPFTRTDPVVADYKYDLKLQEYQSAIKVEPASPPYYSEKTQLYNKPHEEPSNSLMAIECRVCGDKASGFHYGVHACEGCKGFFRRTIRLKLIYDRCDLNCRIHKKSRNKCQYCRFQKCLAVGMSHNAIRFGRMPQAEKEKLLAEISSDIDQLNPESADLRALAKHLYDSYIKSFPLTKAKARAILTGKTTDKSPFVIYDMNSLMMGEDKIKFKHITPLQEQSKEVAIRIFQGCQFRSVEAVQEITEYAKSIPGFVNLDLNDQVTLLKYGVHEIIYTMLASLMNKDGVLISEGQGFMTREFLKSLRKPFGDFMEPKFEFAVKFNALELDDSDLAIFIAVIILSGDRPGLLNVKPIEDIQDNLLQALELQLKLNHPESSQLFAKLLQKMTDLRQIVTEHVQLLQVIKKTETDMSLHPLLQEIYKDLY

[2] = target: T2, Peroxisome proliferator-activated receptor gamma (Homo sapiens) (UniProt P37231); assay: Activity at human PPARgamma by luciferase reporter gene assay; design: concentration or dose not given beside the values
T2 sequence (whole entry): T1 sequence (P37231 whole entry)

[3] = test system: Liver microsomes; assay: Intrinsic clearance in rat liver microsome; assay type: ADME
[4] = test system: Liver microsomes; assay: Intrinsic clearance in human liver microsome; assay type: ADME
[5] = test system: Rattus norvegicus; assay: Blood clearance at steady state in rat at 2 mg/kg/h, iv; assay type: ADME, organism-based; design: route intravenous; conditions: in vivo
[6] = Ratio of drug uptake in brain to blood at steady state in rat at 2 mg/kg/h, iv; assay type: ADME, organism-based; design: route intravenous
[7] = test system: Brain; assay: Drug uptake in rat brain at steady state at 2 mg/kg/h, iv; assay type: ADME, organism-based; design: route intravenous; conditions: in vivo, read-out: Drug uptake
[8] = test system: Liver; assay: Intrinsic clearance in rat liver S9 fraction; assay type: ADME, subcellular

EC50 [1] [nM]	Activity [2] [%]	also measured	Compound
15.8	81	–	CC[C@@H](NC(=O)c1ccc2c(c1)ncn2Cc1ncccc1Cl)c1ccccc1
1.58	73	CL [3]: 3.7 mL/min/g; CL [4]: 0.5 mL/min/g; clearance [5]: 107 mL/min/kg; Kp [6]: 0.59; concentration [7]: 455 nM	CC[C@@H](NC(=O)c1ccc2c(c1)ncn2Cc1ccc(F)cc1F)c1ccccc1
200	65	–	CCc1nc2cc(C(=O)N[C@H](CC)c3ccccc3)ccc2n1Cc1ccc(Cl)c(Cl)c1
631	50	–	Cc1nc2cc(C(=O)N[C@@H](C)c3ccccc3)ccc2n1Cc1ccc(Cl)c(Cl)c1
7.94	80	–	CC[C@@H](NC(=O)c1ccc2c(c1)ncn2Cc1ccccc1F)c1ccccc1
39.8	80	–	CC[C@@H](NC(=O)c1ccc2c(c1)ncn2Cc1ccc(Cl)cn1)c1ccccc1
251	60	–	CC[C@@H](NC(=O)c1ccc2c(c1)nc(C(F)(F)F)n2Cc1ccc(Cl)c(Cl)c1)c1ccccc1
10000	17	–	CC[C@@H](NC(=O)c1ccc2c(c1)nc(C)n2Cc1ccc(C(N)=O)cc1)c1ccccc1
79.4	76	–	CC[C@@H](NC(=O)c1ccc2c(c1)nc(C)n2Cc1cccc(Cl)c1)c1ccccc1
6.31	85	–	CC[C@@H](NC(=O)c1ccc2c(c1)ncn2Cc1ccc(F)c(Cl)c1)c1ccccc1
2.51	71	CL [3]: 3.3 mL/min/g; CL [4]: 0.6 mL/min/g; CL [8]: 10 mL/min/g; clearance [5]: 84 mL/min/kg; Kp [6]: 0.71; concentration [7]: 655 nM	CC[C@@H](NC(=O)c1ccc2c(c1)ncn2Cc1ccc(Cl)c(Cl)c1)c1ccccc1
126	58	–	CC[C@@H](NC(=O)c1ccc2c(c1)nc(C1CC1)n2Cc1ccc(Cl)c(Cl)c1)c1ccccc1
31.6	66	–	CC[C@@H](NC(=O)c1ccc2c(c1)nc(C)n2Cc1ccc(Cl)cc1)c1ccccc1
0.501	77	–	CC[C@@H](NC(=O)c1ccc2c(c1)ncn2Cc1ccc(Cl)cc1Cl)c1ccccc1
398	73	–	CC[C@@H](NC(=O)c1ccc2c(c1)ncn2Cc1ccccc1S(C)(=O)=O)c1ccccc1
50.1	80	–	CC[C@@H](NC(=O)c1ccc2c(c1)nc(C)n2Cc1ccccc1Cl)c1ccccc1
